From PubChem BioAssay AID248 (DTP/NCI, 2004)
Toxic doses and inconclusive results are not listed. Rule as the data show it: active = T/C of 150% or more; inactive = T/C below 125%.

System: L1210 leukemia ip in BDF1 mice, survival T/C
Assay: NCI In Vivo Anticancer Drug Screen. Data for tumor model L1210 Leukemia (intraperitoneal) in B6D2F1 (BDF1) mice
Settings: endpoint: mean survival time, higher = longer survival
Outline: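 Tumor cells were implanted, animals were treated, and survival was followed. The result divides the treated measurement by the vehicle-control measurement.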

[1] = dose: 100.0 mg/kg/injection, schedule: Q04DX003 (ip), vehicle: saline with Tween-80
[2] = dose: 200.0 mg/kg/injection, schedule: Q04DX003 (ip), vehicle: saline with Tween-80
[3] = dose: 400.0 mg/kg/injection, schedule: Q04DX003 (ip), vehicle: saline with Tween-80
[4] = dose: 50.0 mg/kg/injection, schedule: Q04DX003 (ip), vehicle: saline

Measured: T/C

CCN(CC)CCN1C(=O)c2ccccc2S1(=O)=O
inactive: dose: 44.0 mg/kg/injection, schedule: Q01DX Z (ip), vehicle: saline 100 % of control | dose: 66.0 mg/kg/injection, schedule: Q01DX Z (ip), vehicle: saline 98 % of control | dose: 100.0 mg/kg/injection, schedule: Q01DX Z (ip), vehicle: saline 98 % of control

C[C@@H]1CC2=CC(=O)CC[C@]2(C)[C@H]2CC[C@]3(C)[C@@H](O)CC[C@H]3[C@H]12
inactive: dose: 100.0 mg/kg/injection, schedule: Q01DX009 (ip), vehicle: saline with Tween-80 92 % of control | dose: 200.0 mg/kg/injection, schedule: Q01DX009 (ip), vehicle: saline with Tween-80 112 % of control | dose: 400.0 mg/kg/injection, schedule: Q01DX009 (ip), vehicle: saline with Tween-80 100 % of control

Cc1ccc(NC(=S)NCCO)cc1
inactive: [1] 100 % of control | [2] 102 % of control | [3] 97 % of control

OC(CNc1ccc(Cl)cc1)CN1CCCCC1 (configuration not stated)
inactive: [4] 91 % of control | dose: 100.0 mg/kg/injection, schedule: Q01DX001 (ip), vehicle: saline 100 % of control | dose: 100.0 mg/kg/injection, schedule: Q04DX003 (ip), vehicle: saline 98 % of control | dose: 200.0 mg/kg/injection, schedule: Q01DX001 (ip), vehicle: saline 90 % of control

CC(C)OCCCNC(=O)NS(=O)(=O)c1ccc(N)cc1
inactive: [1] 101 % of control | [2] 100 % of control | [3] 92 % of control

CCC(CC)COCCCN
inactive: dose: 12.5 mg/kg/injection, schedule: Q01DX009 (ip), vehicle: saline with Tween-80 97 % of control | dose: 12.5 mg/kg/injection, schedule: Q04DX003 (ip), vehicle: saline with Tween-80 97 % of control | dose: 25.0 mg/kg/injection, schedule: Q01DX009 (ip), vehicle: saline with Tween-80 98 % of control | dose: 25.0 mg/kg/injection, schedule: Q04DX003 (ip), vehicle: saline with Tween-80 95 % of control | dose: 50.0 mg/kg/injection, schedule: Q01DX009 (ip), vehicle: saline with Tween-80 93 % of control | dose: 50.0 mg/kg/injection, schedule: Q04DX003 (ip), vehicle: saline with Tween-80 94 % of control

O=[N+]([O-])c1ccc(S(=O)(=O)OCc2ccccc2COS(=O)(=O)c2ccc([N+](=O)[O-])cc2)cc1
inactive: dose: 50.0 mg/kg/injection, schedule: Q04DX002 (ip), vehicle: saline with Tween-80 106 % of control | dose: 100.0 mg/kg/injection, schedule: Q04DX002 (ip), vehicle: saline with Tween-80 101 % of control

NC1=NCc2ccccc21
inactive: dose: 12.5 mg/kg/injection, schedule: Q04DX003 (ip), vehicle: saline 102 % of control | dose: 25.0 mg/kg/injection, schedule: Q04DX003 (ip), vehicle: saline 93 % of control | [4] 91 % of control
